The NIST ThermoML archive (doi:10.1021/acs.jced.8b00591)
± gives the expanded uncertainty stated by the source.

Experiment: xn = mol fraction of the nth substance listed
Settings: 101.3 kPa, Liquid; for viscosity: Falling or rolling sphere viscometry; for mass density: Vibrating tube method

CCn1cc[n+](C)c1.O=S(=O)([N-]S(=O)(=O)C(F)(F)F)C(F)(F)F + COC(=O)OC
Settings | mass density [kg/m3] | viscosity [mPa·s]
288.15 K, x1 = 0.0989 | 1199.15 ± 2.9 | 1.579 ± 0.035
288.15 K, x1 = 0.1983 | 1282.85 ± 3.1 | 2.913 ± 0.065
288.15 K, x1 = 0.2973 | 1342.57 ± 3.3 | 4.862 ± 0.11
288.15 K, x1 = 0.3958 | 1387.69 ± 3.4 | 7.561 ± 0.17
288.15 K, x1 = 0.496 | 1423.97 ± 3.5 | 11.21 ± 0.25
288.15 K, x1 = 0.5954 | 1452.55 ± 3.5 | 16.89 ± 0.37
288.15 K, x1 = 0.6967 | 1476.87 ± 3.6 | 22.56 ± 0.5
288.15 K, x1 = 0.7982 | 1497.52 ± 3.6 | 30.07 ± 0.66
288.15 K, x1 = 0.9004 | 1514.5 ± 3.7 | 38.55 ± 0.85
288.15 K, x1 = 1 | 1528.55 ± 3.7 | 49.41 ± 1.1
293.15 K, x1 = 0.0989 | 1193.1 ± 2.9 | 1.451 ± 0.032
293.15 K, x1 = 0.1983 | 1277.11 ± 3.1 | 2.637 ± 0.058
293.15 K, x1 = 0.2973 | 1337.02 ± 3.2 | 4.332 ± 0.095
293.15 K, x1 = 0.3958 | 1382.28 ± 3.4 | 6.635 ± 0.15
293.15 K, x1 = 0.496 | 1418.62 ± 3.5 | 9.698 ± 0.21
293.15 K, x1 = 0.5954 | 1447.28 ± 3.5 | 14.58 ± 0.32
293.15 K, x1 = 0.6967 | 1471.62 ± 3.6 | 19.02 ± 0.42
293.15 K, x1 = 0.7982 | 1492.37 ± 3.6 | 25.12 ± 0.56
293.15 K, x1 = 0.9004 | 1509.39 ± 3.7 | 31.87 ± 0.71
293.15 K, x1 = 1 | 1523.47 ± 3.7 | 40.36 ± 0.89
298.15 K, x1 = 0.0989 | 1187.03 ± 2.9 | 1.348 ± 0.03
298.15 K, x1 = 0.1983 | 1271.35 ± 3.1 | 2.4 ± 0.053
298.15 K, x1 = 0.2973 | 1331.47 ± 3.2 | 3.884 ± 0.085
298.15 K, x1 = 0.3958 | 1376.85 ± 3.4 | 5.878 ± 0.13
298.15 K, x1 = 0.496 | 1413.28 ± 3.4 | 8.484 ± 0.19
298.15 K, x1 = 0.5954 | 1442.02 ± 3.5 | 12.53 ± 0.28
298.15 K, x1 = 0.6967 | 1466.42 ± 3.6 | 16.66 ± 0.37
298.15 K, x1 = 0.7982 | 1487.23 ± 3.6 | 21.25 ± 0.47
298.15 K, x1 = 0.9004 | 1504.28 ± 3.7 | 26.71 ± 0.59
298.15 K, x1 = 1 | 1518.39 ± 3.7 | 33.52 ± 0.74
303.15 K, x1 = 0.0989 | 1180.95 ± 2.9 | 1.25 ± 0.028
303.15 K, x1 = 0.1983 | 1265.59 ± 3.1 | 2.195 ± 0.048
303.15 K, x1 = 0.2973 | 1325.91 ± 3.2 | 3.507 ± 0.077
303.15 K, x1 = 0.3958 | 1371.44 ± 3.3 | 5.241 ± 0.12
303.15 K, x1 = 0.496 | 1407.96 ± 3.4 | 7.472 ± 0.16
303.15 K, x1 = 0.5954 | 1436.78 ± 3.5 | 10.8 ± 0.24
303.15 K, x1 = 0.6967 | 1461.24 ± 3.6 | 14.52 ± 0.32
303.15 K, x1 = 0.7982 | 1482.09 ± 3.6 | 18.37 ± 0.4
303.15 K, x1 = 0.9004 | 1499.19 ± 3.6 | 22.66 ± 0.5
303.15 K, x1 = 1 | 1513.34 ± 3.7 | 28.35 ± 0.62
308.15 K, x1 = 0.0989 | 1174.86 ± 2.9 | 1.162 ± 0.026
308.15 K, x1 = 0.1983 | 1259.83 ± 3.1 | 2.019 ± 0.044
308.15 K, x1 = 0.2973 | 1320.35 ± 3.2 | 3.177 ± 0.07
308.15 K, x1 = 0.3958 | 1366.03 ± 3.3 | 4.706 ± 0.1
308.15 K, x1 = 0.496 | 1402.66 ± 3.4 | 6.64 ± 0.15
308.15 K, x1 = 0.5954 | 1431.55 ± 3.5 | 9.382 ± 0.21
308.15 K, x1 = 0.6967 | 1456.07 ± 3.5 | 12.62 ± 0.28
308.15 K, x1 = 0.7982 | 1476.98 ± 3.6 | 16.22 ± 0.36
308.15 K, x1 = 0.9004 | 1494.12 ± 3.6 | 19.42 ± 0.43
308.15 K, x1 = 1 | 1508.3 ± 3.7 | 24.15 ± 0.53
313.15 K, x1 = 0.0989 | 1168.75 ± 2.9 | 1.086 ± 0.024
313.15 K, x1 = 0.1983 | 1254.07 ± 3 | 1.865 ± 0.041
313.15 K, x1 = 0.2973 | 1314.81 ± 3.2 | 2.904 ± 0.064
313.15 K, x1 = 0.3958 | 1360.63 ± 3.3 | 4.247 ± 0.093
313.15 K, x1 = 0.496 | 1397.36 ± 3.4 | 5.946 ± 0.13
313.15 K, x1 = 0.5954 | 1426.34 ± 3.5 | 8.189 ± 0.18
313.15 K, x1 = 0.6967 | 1450.93 ± 3.5 | 10.96 ± 0.24
313.15 K, x1 = 0.7982 | 1471.88 ± 3.6 | 14.22 ± 0.31
313.15 K, x1 = 0.9004 | 1489.06 ± 3.6 | 17.21 ± 0.38
313.15 K, x1 = 1 | 1503.28 ± 3.7 | 20.76 ± 0.46
318.15 K, x1 = 0.0989 | 1162.63 ± 2.8 | 1.016 ± 0.022
318.15 K, x1 = 0.1983 | 1248.3 ± 3 | 1.729 ± 0.038
318.15 K, x1 = 0.2973 | 1309.26 ± 3.2 | 2.661 ± 0.058
318.15 K, x1 = 0.3958 | 1355.23 ± 3.3 | 3.831 ± 0.084
318.15 K, x1 = 0.496 | 1392.08 ± 3.4 | 5.358 ± 0.12
318.15 K, x1 = 0.5954 | 1421.14 ± 3.5 | 7.249 ± 0.16
318.15 K, x1 = 0.6967 | 1445.79 ± 3.5 | 9.578 ± 0.21
318.15 K, x1 = 0.7982 | 1466.8 ± 3.6 | 12.43 ± 0.27
318.15 K, x1 = 0.9004 | 1484.02 ± 3.6 | 15.16 ± 0.33
318.15 K, x1 = 1 | 1498.27 ± 3.6 | 17.9 ± 0.39
323.15 K, x1 = 0.0989 | 1156.5 ± 2.8 | 0.954 ± 0.021
323.15 K, x1 = 0.1983 | 1242.54 ± 3 | 1.608 ± 0.035
323.15 K, x1 = 0.2973 | 1303.72 ± 3.2 | 2.452 ± 0.054
323.15 K, x1 = 0.3958 | 1349.85 ± 3.3 | 3.512 ± 0.077
323.15 K, x1 = 0.496 | 1386.81 ± 3.4 | 4.857 ± 0.11
323.15 K, x1 = 0.5954 | 1415.92 ± 3.4 | 6.332 ± 0.14
323.15 K, x1 = 0.6967 | 1440.67 ± 3.5 | 8.381 ± 0.18
323.15 K, x1 = 0.7982 | 1461.74 ± 3.6 | 10.9 ± 0.24
323.15 K, x1 = 0.9004 | 1479 ± 3.6 | 13.29 ± 0.29
323.15 K, x1 = 1 | 1493.28 ± 3.6 | 15.93 ± 0.35
328.15 K, x1 = 0.0989 | 1150.34 ± 2.8 | 0.898 ± 0.02
328.15 K, x1 = 0.1983 | 1236.76 ± 3 | 1.501 ± 0.033
328.15 K, x1 = 0.2973 | 1298.19 ± 3.2 | 2.268 ± 0.05
328.15 K, x1 = 0.3958 | 1344.47 ± 3.3 | 3.224 ± 0.071
328.15 K, x1 = 0.496 | 1381.55 ± 3.4 | 4.421 ± 0.097
328.15 K, x1 = 0.5954 | 1410.75 ± 3.4 | 5.588 ± 0.12
328.15 K, x1 = 0.6967 | 1435.57 ± 3.5 | 7.456 ± 0.16
328.15 K, x1 = 0.7982 | 1456.69 ± 3.5 | 9.61 ± 0.21
328.15 K, x1 = 0.9004 | 1474 ± 3.6 | 11.68 ± 0.26
328.15 K, x1 = 1 | 1488.31 ± 3.6 | 14.26 ± 0.31
